# In patent publication US7074807B2, “Compositions and methods for inducing cell death” (Georgetown University, priority 1998, dated 2006):
# What was measured:
# MDA-MB 231 cells [1] = assay: Cell viability assay (WST-1); type: cell-based, human; settings: 10 mM, within 2 h
# Procedure: FIG. 6. Effects of tempol and tempo on cell viability. […] Control cells were grown overnight in serum-free medium, followed by treatment with 1% ethanol for various times. Fresh serum-free medium (100 ul) was added to each well in all plates, including controls followed by the addition of WST-1 (10 ul). Plates were incubated for 2 h at 37° C. and the color solution developed by WST-1 was quantified using a MR 700 microplate reader at OD=450/600. Values shown are mean±s.d. of 6 determinations per treatment condition in a representative experiment, and the experiment was repeated three times.
# Cell Viability Assay—Effects of nitroxide compounds on cell viability and proliferation were determined using a cell viability detection kit (4-[3-(4-Iodophenyl)-2-(4-nitrophenyl)-2H-5-tetrazolio]-1,3-benzene disulfonate, WST-1) according to the manufacturer's instructions (Boehringer Mannheim, Indianapolis, Ind.). Briefly, MDA-MB 231 cells were seeded onto 96 well plates at density of 10,000 cells per well and maintained overnight in 10% FBS containing medium. The cells were then washed twice with phosphate buffered saline and re-fed in serum-free medium. The following day, cells were treated for various times with tempol (10 mM) or tempo (10 mM), using six wells per treatment condition. […] Plates were incubated for 2 h at 37° C. and analyzed at OD=450/600 using a MR 700 microplate reader.
# MDA-MB 231 cells [2] = assay: Ceramide generation assay (DAG kinase assay); type: cell-based, human; settings: 10 mM
# Procedure: FIG. 8. Ceramide production in tempo-treated MDA-MB 231 cells. Logarithmically growing cells were cultured in serum-free medium overnight in 60 mm dishes, and treated with tempol (10 mM) and tempo (10 mM) for indicated times, followed by lipid extraction, and quantitation of ceramide by DAG kinase assay as described in experimental procedures. The organic phase extract containing the [γ^32P]-labeled ceramide was quantitated. Control cells were grown overnight in serum-free medium, followed by treatment with 1% ethanol for various times ranging from 0.5 h to 2 h. Tempol/tempo treatment values shown are the mean±s.d. of triplicate determinations, the value at each time point normalized to control (100%).
# Ceramide Generation Assay—Ceramide production in MDA-MB 231 cells was determined by diacylglycerol (DAG) kinase assay according to a previously described procedure (Haimovitz-Friedman, A. et al., 1994, J. Exp. Med. 180, 525–535; Dressler, K. A. and Kolesnick, R. N., 1990, J. Biol. Chem. 265, 14917–14921). Briefly, MDA-MB 231 cells were split (1:2), and after 24 h, the cells were washed twice with PBS and serum-free medium was added, followed by incubation for additional 24 h. The cells (˜2×10^6/60 mm dish) were treated with tempo (10 mM) or tempol (10 mM) for various times. Following treatment, floating cells were collected and pelleted by centrifugation for 10 min at 1200 rpm, and attached cells were collected by scraping. Lipids were extracted from all cells (floating and attached) by incubation in 1 ml 100% ice-cold methanol. After a partial purification with chloroform, the extracted lipid in the organic phase was dried under N2 and was treated with a mild alkaline solution (0.1 N KOH in methanol) for 1 h at 37° C. to remove glycerolphospholipids. […] The spot containing the ceramide-1-phosphate was visualized by autoradiography, and the incorporated ^32P was removed by scraping, and quantified by Cerenkov counting. […]
Compound,decrease in the number of viable cells (MDA-MB 231 cells [1]),"increase over control in ceramide level (MDA-MB 231 cells [2]; 30 min, control normalized to 100%)","ceramide level over control (MDA-MB 231 cells [2]; 1 h, control normalized to 100%)",level of ceramide generated compared to control cells (MDA-MB 231 cells [2]; all time points)
"CC1(C)CCCC(C)(C)N1[O] [tempo, 2,2,6,6-tetramethylpiperidine-N-oxyl]",> 50%,54%,71%,–
"CC1(C)CC(O)CC(C)(C)N1[O] [tempol, 4-hydroxy-tempo, reference compound]",comparable to control cells,–,–,not significantly higher
